Earlier results as cited in the PKSmart pharmacokinetics tables (Seal et al. 2025).

Key:
[1] = Lombardo et al. 2013, J Clin Pharmacol 53:178, doi 10.1177/0091270012440282; settings: for Vd / clearance: in vivo, iv; for fraction unbound: plasma
[2] = Lombardo, Berellini, Obach 2018, Drug Metab Dispos 46:1466, doi 10.1124/dmd.118.082966; settings: human; for MRT / Vd / half-life / clearance: in vivo, iv; for fraction unbound: plasma

**Q.** Which results are given for C[C@@H](O)C1C(=O)N2C(C(=O)O)=C(SCCOC(N)=O)S[C@H]12 (stereo partly drawn)?
**A.** Vd ([1]; dog): 0.24 L/kg; Vd ([1]; monkey): 0.21 L/kg; Vd ([1]; rat): 0.14 L/kg; MRT [2]: 0.67 h; Vd [2]: 0.3 L/kg; half-life [2]: 0.8 h; fraction unbound [2]: 0.35

**Q.** What does the source list for C[C@@H]1CCC[C@H](C)N1CCCC(O)(c1ccccc1)c1ccccn1 (stereo partly drawn)?
**A.** Vd ([1]; dog): 2.1 L/kg; clearance ([1]; dog): 8.3 mL/min/kg; fraction unbound ([1]; dog): 0.492; Vd ([1]; monkey): 0.87 L/kg; clearance ([1]; monkey): 4.92 mL/min/kg; fraction unbound ([1]; monkey): 0.42; Vd ([1]; rat): 2.6 L/kg; clearance ([1]; rat): 62 mL/min/kg; fraction unbound ([1]; rat): 0.49; MRT [2]: 13 h; Vd [2]: 1.4 L/kg; clearance [2]: 1.8 mL/min/kg; half-life [2]: 8.4 h

**Q.** With Oc1ccc2c3c1O[C@H]1[C@@H](O)CC[C@@]4(O)[C@@H](C2)N(CC2CCC2)CC[C@]314 as the compound, how does the Vd ([1]; rat) read?
**A.** The Vd was 11 L/kg.

**Q.** And the clearance ([1]; rat)?
**A.** The clearance was 111 mL/min/kg.

**Q.** What about the MRT [2] of the same compound?
**A.** Its MRT is 3.5 h.

**Q.** And the Vd [2]?
**A.** The Vd was 4.6 L/kg.

**Q.** What about the clearance [2] of the same compound?
**A.** The clearance was 22 mL/min/kg.

**Q.** And the half-life [2]?
**A.** Its half-life is 3.7 h.

**Q.** Which Vd ([1]; dog) does the source give for NCCC(O)C(=O)N[C@@H]1C[C@H](N)[C@@H](O[C@H]2O[C@H](CN)[C@@H](O)[C@H](O)[C@H]2O)[C@H](O)[C@H]1O[C@H]1O[C@H](CO)[C@@H](O)[C@H](N)[C@H]1O (stereo partly drawn) here?
**A.** Its Vd is 0.2 L/kg.

**Q.** And the clearance ([1]; dog)?
**A.** The clearance was 3.5 mL/min/kg.

**Q.** And the Vd ([1]; rat)?
**A.** Its Vd is 0.16 L/kg.

**Q.** What about the clearance ([1]; rat) of the same compound?
**A.** The clearance was 5.4 mL/min/kg.

**Q.** And the MRT [2]?
**A.** The MRT was 2.4 h.

**Q.** And the Vd [2]?
**A.** Its Vd is 0.16 L/kg.

**Q.** What about the clearance [2] of the same compound?
**A.** The clearance was 1.1 mL/min/kg.

**Q.** And the half-life [2]?
**A.** The half-life was 2.4 h.

**Q.** What about the fraction unbound [2] of the same compound?
**A.** Its fraction unbound is 0.88.

**Q.** For CN(C)CCCN1c2ccccc2CCc2ccc(Cl)cc21, which Vd ([1]; dog) is on record?
**A.** The Vd was 3.7 L/kg.

**Q.** And the clearance ([1]; dog)?
**A.** The clearance was 23.3 mL/min/kg.

**Q.** And the fraction unbound ([1]; dog)?
**A.** The fraction unbound was 0.01.

**Q.** What about the MRT [2] of the same compound?
**A.** Its MRT is 26 h.

**Q.** What about the Vd [2] of the same compound?
**A.** The Vd was 13 L/kg.

**Q.** And the clearance [2]?
**A.** The clearance was 8.2 mL/min/kg.

**Q.** Which Vd ([1]; dog) does the source give for Cc1nnc2n1-c1sc(Br)cc1C(c1ccccc1Cl)=NC2 here?
**A.** The Vd was 6.1 L/kg.

**Q.** And the clearance ([1]; dog)?
**A.** The clearance was 11 mL/min/kg.

**Q.** What about the Vd ([1]; monkey) of the same compound?
**A.** The Vd was 6.5 L/kg.

**Q.** And the clearance ([1]; monkey)?
**A.** The clearance was 13 mL/min/kg.

**Q.** And the Vd ([1]; rat)?
**A.** Its Vd is 3 L/kg.

**Q.** And the clearance ([1]; rat)?
**A.** The clearance was 23 mL/min/kg.

**Q.** What about the fraction unbound ([1]; rat) of the same compound?
**A.** Its fraction unbound is 0.22.

**Q.** What about the MRT [2] of the same compound?
**A.** Its MRT is 6 h.

**Q.** And the Vd [2]?
**A.** Its Vd is 0.75 L/kg.

**Q.** What about the clearance [2] of the same compound?
**A.** Its clearance is 2 mL/min/kg.

**Q.** And the half-life [2]?
**A.** Its half-life is 4.8 h.

**Q.** What about the fraction unbound [2] of the same compound?
**A.** The fraction unbound was 0.092.

**Q.** Which Vd ([1]; dog) does the source give for CC(C)NCC(O)COc1ccc(COCCOC(C)C)cc1 (stereo not drawn) here?
**A.** The Vd was 3.5 L/kg.

**Q.** What about the clearance ([1]; dog) of the same compound?
**A.** Its clearance is 7.9 mL/min/kg.

**Q.** What about the Vd ([1]; monkey) of the same compound?
**A.** The Vd was 3 L/kg.

**Q.** What about the clearance ([1]; monkey) of the same compound?
**A.** The clearance was 12 mL/min/kg.

**Q.** What about the Vd ([1]; rat) of the same compound?
**A.** Its Vd is 1.4 L/kg.

**Q.** What about the clearance ([1]; rat) of the same compound?
**A.** Its clearance is 13 mL/min/kg.

**Q.** And the fraction unbound ([1]; rat)?
**A.** Its fraction unbound is 0.85.

**Q.** What about the Vd [2] of the same compound?
**A.** Its Vd is 2.4 L/kg.

**Q.** And the clearance [2]?
**A.** Its clearance is 3.7 mL/min/kg.

**Q.** And the half-life [2]?
**A.** The half-life was 10 h.

**Q.** What does the source list for CCOC(=O)C1[C@@H](OC(=O)c2ccccc2)C[C@@H]2CC[C@H]1N2C (stereo partly drawn)?
**A.** Vd ([1]; dog): 2.68 L/kg; clearance ([1]; dog): 42.2 mL/min/kg; MRT [2]: 2 h; Vd [2]: 1.6 L/kg; clearance [2]: 13 mL/min/kg; half-life [2]: 1.5 h; fraction unbound [2]: 0.64

**Q.** Which Vd ([1]; rat) does the source give for CN(C(=O)c1c(O)c2ccccc2n(C)c1=O)c1ccccc1 here?
**A.** Its Vd is 0.32 L/kg.

**Q.** What about the clearance ([1]; rat) of the same compound?
**A.** Its clearance is 0.17 mL/min/kg.

**Q.** And the MRT [2]?
**A.** The MRT was 43 h.

**Q.** And the Vd [2]?
**A.** The Vd was 0.21 L/kg.

**Q.** And the clearance [2]?
**A.** The clearance was 0.082 mL/min/kg.

**Q.** What about the half-life [2] of the same compound?
**A.** Its half-life is 31 h.

**Q.** Which Vd ([1]; dog) does the source give for COC(=O)C1[C@@H](OC(=O)c2ccccc2)C[C@@H]2CC[C@H]1N2C (stereo partly drawn) here?
**A.** The Vd was 2.6 L/kg.

**Q.** What about the clearance ([1]; dog) of the same compound?
**A.** Its clearance is 48.7 mL/min/kg.

**Q.** And the fraction unbound ([1]; dog)?
**A.** Its fraction unbound is 0.76.

**Q.** What about the Vd ([1]; rat) of the same compound?
**A.** The Vd was 16.4 L/kg.

**Q.** What about the clearance ([1]; rat) of the same compound?
**A.** Its clearance is 253 mL/min/kg.

**Q.** And the fraction unbound ([1]; rat)?
**A.** The fraction unbound was 0.78.

**Q.** And the MRT [2]?
**A.** Its MRT is 1 h.

**Q.** What about the Vd [2] of the same compound?
**A.** The Vd was 2 L/kg.

**Q.** And the clearance [2]?
**A.** Its clearance is 32 mL/min/kg.

**Q.** What about the half-life [2] of the same compound?
**A.** The half-life was 0.76 h.

**Q.** What about the fraction unbound [2] of the same compound?
**A.** The fraction unbound was 0.12.

**Q.** For CC[C@@H](CO)NCCN[C@@H](CC)CO, which Vd ([1]; dog) is on record?
**A.** The Vd was 3.8 L/kg.

**Q.** What about the clearance ([1]; dog) of the same compound?
**A.** The clearance was 13 mL/min/kg.

**Q.** What about the MRT [2] of the same compound?
**A.** Its MRT is 2.7 h.

**Q.** What about the Vd [2] of the same compound?
**A.** Its Vd is 1.7 L/kg.

**Q.** What about the clearance [2] of the same compound?
**A.** Its clearance is 10 mL/min/kg.

**Q.** And the half-life [2]?
**A.** Its half-life is 3.1 h.

**Q.** And the fraction unbound [2]?
**A.** The fraction unbound was 0.18.

**Q.** For Nc1ccn([C@H]2CC[C@@H](CO)O2)c(=O)n1, which Vd ([1]; monkey) is on record?
**A.** Its Vd is 0.98 L/kg.

**Q.** What about the clearance ([1]; monkey) of the same compound?
**A.** The clearance was 10.3 mL/min/kg.

**Q.** And the Vd ([1]; rat)?
**A.** Its Vd is 1 L/kg.

**Q.** And the clearance ([1]; rat)?
**A.** Its clearance is 11.2 mL/min/kg.

**Q.** What about the fraction unbound ([1]; rat) of the same compound?
**A.** Its fraction unbound is 0.85.

**Q.** What about the fraction unbound [2] of the same compound?
**A.** Its fraction unbound is 0.96.

**Q.** For CN(C)CCC=C1c2ccccc2CCc2ccccc21, which Vd ([1]; rat) is on record?
**A.** The Vd was 11 L/kg.

**Q.** And the clearance ([1]; rat)?
**A.** Its clearance is 71 mL/min/kg.

**Q.** And the fraction unbound ([1]; rat)?
**A.** Its fraction unbound is 0.11.

**Q.** And the MRT [2]?
**A.** The MRT was 24 h.

**Q.** What about the Vd [2] of the same compound?
**A.** The Vd was 8.7 L/kg.

**Q.** And the clearance [2]?
**A.** The clearance was 6.1 mL/min/kg.

**Q.** What about the half-life [2] of the same compound?
**A.** The half-life was 17 h.

**Q.** For CCN(CC)CCNC(=O)c1ccc(NC(C)=O)cc1, which Vd ([1]; dog) is on record?
**A.** The Vd was 1.9 L/kg.

**Q.** And the clearance ([1]; dog)?
**A.** The clearance was 6.4 mL/min/kg.

**Q.** And the fraction unbound ([1]; dog)?
**A.** Its fraction unbound is 0.913.

**Q.** And the Vd ([1]; rat)?
**A.** Its Vd is 2.9 L/kg.

**Q.** What about the clearance ([1]; rat) of the same compound?
**A.** The clearance was 28 mL/min/kg.

**Q.** And the fraction unbound ([1]; rat)?
**A.** The fraction unbound was 0.58.

**Q.** And the MRT [2]?
**A.** Its MRT is 7.9 h.

**Q.** And the Vd [2]?
**A.** Its Vd is 1.9 L/kg.

**Q.** And the clearance [2]?
**A.** The clearance was 4 mL/min/kg.

**Q.** What about the half-life [2] of the same compound?
**A.** Its half-life is 6.4 h.

**Q.** What about the fraction unbound [2] of the same compound?
**A.** Its fraction unbound is 0.9.
